How the values were obtained:
Assay type in all cases: cell-based, Pseudomonas aeruginosa
[1] = tested on: nonswarming P. aeruginosa mutant rhlA; test: Swarming motility of nonswarming rhlA mutant on soft agar (reactivation / agonist assay); conditions: for Swarming reactivation of rhlA mutant: 110 μM in soft agar
Source text: Using nonswarming mutant to screen for swarming agonists and wild type P. aeruginosa for swarming antagonists. The transposon mutant, rhlA (genotype, rhlA-E08:ISphoA/hah)39 of P. aeruginosa (PAO1), that impairs the gene that is responsible for synthesizing rhamnolipids is completely incapable of a swarming motility. […] Based on this inference, a rhlA mutant was used in a swarming experiment to screen the saccharide-hydrocarbons for agonists that can reactivate the swarming motility of rhlA.
(§1) Swarm agar plates were based on M8 medium supplemented with 0.2% glucose, 0.5% casamino acid, 1 mM MgSO4 and […]. 17 For each set of experiment all the swarm plates were poured from same batch of agar and allowed to dry for 1 h before inoculation of bacteria. Bacterial culture (3 μl) (wild type PAO1 or rhlA mutant) with OD600 between […] was inoculated on the solidified agar plates. Swarm agar plates were incubated at 37° C. for 12 h and then incubated for additional 12 h at room temp. Chronological images of swarm plates were taken using a camera. To measure swarming area, sizes of the petridish in all swarming images were adjusted to a pre-assigned diameter and images were printed on copying paper (Xerox-business 4200). Weight of a 1 cm^2 copy paper square was roughly ˜8.0 mg. swarming images on the copy paper were cut and weighed, the swarm area was calculated by dividing the weight of image by weight of 1 cm^2 square (8 mg).
(§2) Swarm agar plates were made using M8 medium supplemented with 0.2% glucose, 0.5% casamino acid, 1 mM MgSO4 and solidified with 0.5% Bacto agar. 24 Bacterial culture with OD600 between 0.4 to 0.6 was inoculated as 3 μl aliquots. Swarm agar plates were incubated at 37° C. for 12 h and then incubated for additional 12 h at rt. For each set of experiment all the swarm plates were poured from same batch of agar and allowed to dry for 1 h before inoculation of bacteria.

[2] = tested on: wild type PAO1; test: Swarming motility of wild type PAO1 on soft agar (antagonist assay); conditions: for Swarming of wild type PAO1: 110 μM in soft agar; for Effect on PAO1 swarming: concentration not given
Experimental: In contrast, the wild type P. aeruginosa produces the rhamnolipids and is capable of swarming on soft agar gel (˜0.5% agar). […] We note that saccharide hydrocarbons may also promote the swarming motility, but such promotions are less unambiguous than the inhibition for wild type PAO1. Such promotion will be unambiguous in the agonist assay using the nonswarming mutant rhlA.
as §1, §2

[3] = tested on: PAO1 biofilm; test: Crystal violet based static biofilm inhibition assay, DSHs in LB media (Examples 2 and 4); conditions: for Inhibition of PAO1 biofilm formation (surface attached): 160 μM, 24 h, LB media; for Anti-biofilm activity (biofilm inhibition): concentration not given
Experimental: The ability of DSHs was tested to inhibit Pseudomonas aeruginosa adhesion, biofilm and to disperse pre-formed biofilm. To quantify the amount of PAO1/EGFP attached on the surface of micro titer plates with or without the synthesized DSHs, fluorescence emitted by green fluorescent proteins (GFP) was quantified (see supporting info for details). Crystal violet (CV) based static biofilm assay (see supporting info) was used to screen the anti-biofilm potencies of all synthesized agents. Both surface attached (SA) (FIG. 17) and total (SA+air-liquid interface) biofilm of P. aeruginosa was quantified. […] CV assays were also used to quantify the amount of P. aeruginosa biofilm remaining after dispersion experiments (FIG. 19). Initially, all agents were screen for anti-biofilm activities (both inhibition and dispersion) at 160 μM. […] All reported biofilm inhibition results are an average of 4 identical wells.
The effect that DSHs have on the adhesion of PAO1-EGFP on polystyrene surface (microtiter plate) was also examined. PAO1-EGFP is a P. aeruginosa strain that constitutively expresses green fluorescent protein. In the adhesion assays, PAO1-EGFP was grown in microtiter plate for 24-hours in LB-media with (160 μM) or without DSHs. After 24-hours, the fluorescent signal obtained from surface adhered PAO1-EGFP was measured. Percent reduction in fluorescence was calculated by comparing fluorescent signal from PAO1-EGFP grown in LB-media with the signal from wells that had DSHs (FIG. 29A). To study the effect of DSHs on biofilm formation, Pseudomonas aeruginosa (PAO1) was grown in LB-media with (160 μM) or without DSHs at 37° C. under static conditions within wells of microtiter plates. After 24 hours, the surface attached biofilms adhering to the bottom of the wells were stained with crystal-violet dye and the biofilm was quantified by measuring absorbance at 600 nm (OD600). […] Similar to inhibition, the surface attached biofilm after dispersion with DSHs was quantified with crystal-violet staining and absorbance measurement at 600 nm, except that for dispersion, biofilm was first grown for 1 day in just LB-media without any DSHs after which DSHs were added and plates were incubated for additional 24 hours followed by quantification (FIG. 29B).
Crystal violet (CV) based-biofilm inhibition assay. Inhibitory effect of all synthesized disaccharide hydrocarbons on biofilm formation of Pseudomonas aeruginosa (wild type PAO1) was determined by static biofilm inhibition assay using crystal violet staining. Overnight culture of PAO1 were sub cultured in LB media to OD600 of 0.01 and further the OD600 was allowed to reach ˜0.1. The bacterial sub-culture (200 μL) was then added into the wells of a microtiter plate. Predetermined concentrations of DSHs were added to respective wells containing sub culture by pipetting out fixed volume of sterile aqueous stock solutions (except DβL (7), SPOT, (15) and 2-ODαC (17), which were introduced as stocks prepared in H2O […] and EtOH (90:10) solutions). The microtiter plates were then wrapped in GLAD Press n′ Seal® (saran wrap) and further incubated under stationary conditions for 24 h at 37° C. After 24 h incubation, the culture media was discarded by pipetting carefully (without disrupting biofilm), the plate was then washed once with sterile water (200 μL) and allowed to dry at 37° C. for ˜30 mins. Microtiter plates were then stained with 0.1% aqueous solution of crystal violet (CV) (200 μL) at rt for ˜30 mins. Following this, the CV stain was removed and plate was again washed with sterile water (200 μL). Resultant CV stain in the well was then solubilized by adding 100 μL of 30% AcOH solution (in water) and mixing gently by pipetting.

[4] = tested on: PAO1-EGFP biofilm; test: Biofilm on steel coupons, fluorescence / CLSM; conditions: 160 μM, 24 h, LB media
Experimental: A crystal violet (CV) assay was used to measure the amount of PAO1 biofilm formed after 24 h of bacterial inoculation. The fluorescence of green fluorescent proteins (GFP) expressed by PAO1-GFP was measured to directly quantify bacterial adhesion on polystyrene black 96 well plates with and without maltose derivatives after 2 h of bacterial inoculation. To evaluate the potential of maltose derivatives as both anti-biofilm and anti-adhesion agents, they were compared to a brominated furanone (BF8) known to inhibit biofilm formation, and two generic surfactants, sodium dodecyl sulfate (SDS) and tetra (ethylene glycol) monododecyl ether (C12EG4OH). […] P. aeruginosa strain PAO1-EGFP that constitutively producing green fluorescent protein was allowed to form biofilm on sterile steel coupons.
Confocal laser scanning microscopy (CLSM) based biofilm inhibition assay. Steel coupons (˜1×1 cm) were washed with EtOH, dried under a stream of nitrogen and then sterilized in an autoclave. Overnight culture of PAO1/EGFP (OD600 ˜1.0) grown in LB media (supplemented with 300 μg/mL of carbenicillin), was sub-cultured to OD600˜0.01 and then the OD600 was allowed to reach ˜0.1. Aliquot (600 μL) of PAO1/EGFP subculture OD600˜0.1 was then added into the wells of a 24-well micro titer plate. DSHs were then introduced into the assigned wells to reach a resultant concentration of 160 μM. Bacterial sub-culture with no agent served as positive control. Sterile steel coupons were then placed into the wells and the plates were wrapped with saran wrap and incubated for 24 h at 37° C. under static conditions. After 24 hours, the steel coupons were removed and washed by dipping in PBS buffer (2 washes) and the dried by holding with a forcep and gently dabbing the edge on a bleached paper (KIM wipes). The dried steel coupons were viewed under confocal laser scanning microscope (CLSM). Images were taken at 4 random locations on each steel coupons. Z-stacked images were also taken to determine the relative thickness of the biofilm.

[5] = 85 μM in soft agar (0.5%), 24 h

CCCCCCCCCCCCO[C@@H]1O[C@H](CO)[C@@H](O[C@@H]2O[C@H](CO)[C@H](O)[C@H](O)[C@H]2O)[C@H](O)[C@H]1O [DβL (7), dodecyl-β-lactoside]
Swarming reactivation of rhlA mutant ([1]; 24 h): incapable of reactivating the swarming
Swarming of wild type PAO1 ([2]; 24 h): did not significantly affect the swarm pattern
Inhibition of PAO1 biofilm formation (surface attached) [3]: insignificant biofilm inhibition
Inhibition of PAO1 biofilm formation (surface attached) ([3]; listed as 7: DβL, 160 µM): severely compromised the anti-biofilm activity
Anti-biofilm activity (biofilm inhibition) [3]: low activities
PAO1-EGFP biofilm on stainless steel coupons (CLSM) [4]: bacterial surface coverage comparable to that of control

CCCCCCCCCCCCO[C@@H]1O[C@H](CO)[C@@H](O[C@@H]2O[C@H](CO)[C@@H](O)[C@H](O)[C@H]2O)[C@H](O)[C@H]1O [DβC (4), dodecyl-β-cellobioside]
Concentration at which tendril formation was induced in rhlA mutant [1]: ~56 µM
Concentration of first inhibition of rhlA swarming [1]: around 50 μM
Swarming motility of rhlA mutant ([1]; 40 μM): activated the swarming motility of rhlA mutant
Swarming motility of rhlA mutant [1, 5]: strong reactivation of the swarming motility in rhlA mutant
Swarming reactivation of rhlA mutant ([1]; 24 h, listed as 4: DbC): fully restores swarming with fine tendrils
Swarming reactivation of rhlA mutant ([1]; 24 h, listed as 4: DβC): fully restored the swarming of rhlA
Concentration of another activation of rhlA swarming ([1]; after first inhibition): about 160 μM
Concentration of activity reversal for swarming promotion of rhlA mutant (transition concentration) ([1]; soft agar): ^a~45-56 μM
Lowest concentration that reactivates swarming of rhlA mutant ([1]; soft agar): ≤ 20 µM
Concentration of activity reversal for swarming promotion of rhlA mutant (transition concentration) ([1]; soft agar, listed as 4): 45 to 56 µM
Concentration at which tendrils were induced in PAO1 [2]: 20 µM
Swarming motility of wild type PAO1 ([2]; 20 μM): stronger inhibition than rhamnolipids
Swarming area of PAO1 smaller than control ([2]; 85 μM): ~46%
Swarming motility of wild type PAO1 ([2]; 85 μM in soft agar, 24 h): causing significant amount of tendril formation
Swarming area of wild type PAO1 ([2]; 85 μM, control ~24 cm2): ~13 cm2
Swarming of wild type PAO1 ([2]; 24 h, listed as 4: DbC): promotes tendril formation
Swarming of wild type PAO1 ([2]; 24 h, listed as 4: DβC): induced more tendril formation
Effect on PAO1 swarming [2]: induced tendril formation in the swarming pattern of PAO1
Concentration of activity reversal for swarming inhibition of PAO1 (transition concentration) ([2]; soft agar): ~20 to 30 µM
Inhibition of PAO1 biofilm formation (surface attached) ([3]; listed as 4: DβC, 160 µM): 60%
Inhibition of PAO1 biofilm formation (surface attached) ([3]; listed as DISC (4)): 62%
IC50 ([3]; Example 4, FIG. 30): ~72 µM
PAO1-EGFP biofilm on stainless steel coupons (CLSM) [4]: decreased the fluorescence signal significantly

CCCCCCCCCCO[C@@H]1O[C@H](CO)[C@@H](O[C@@H]2O[C@H](CO)[C@@H](O)[C@H](O)[C@H]2O)[C@H](O)[C@H]1O [DeβC (2), decyl-β-cellobioside]
Swarming motility of rhlA mutant [1, 5]: did not show a noticeable effect on the swarming motility
Swarming reactivation of rhlA mutant ([1]; 24 h): incapable of reactivating the swarming
Swarming motility of rhlA mutant ([1]; 160 μM in soft agar, 24 h): weak activation of rhlA swarming motility
Reactivation of swarming motility of rhlA mutant ([1]; concentration not given): activated the swarming motility of rhlA mutant
Increase of reactivated swarming ring of rhlA with respect to swarming ring of PAO1 without agents ([1]; increasing from 85 to 160 μM): 38%
Swarming motility of wild type PAO1 ([2]; 85 μM in soft agar, 24 h): did not show a noticeable effect on the swarming motility
Swarming of wild type PAO1 ([2]; 24 h): did not significantly affect the swarm pattern
Swarming motility of wild type PAO1 ([2]; 160 μM in soft agar, 24 h): weak promotion of swarming motility of wild type PAO1
Effect on PAO1 swarming [2]: no apparent effect on PAO1 swarming
Inhibition of PAO1 biofilm formation (surface attached) [3]: insignificant biofilm inhibition and no
Inhibition of PAO1 biofilm formation (surface attached) ([3]; listed as 2: DeβC, 160 µM): complete loss of anti-biofilm activity
Anti-biofilm activity (biofilm inhibition) [3]: did not show significant inhibition of PAO1 biofilm
Anti-biofilm activity (biofilm inhibition) ([3]; listed as DβC (2)): did not show anti-biofilm activities
PAO1-EGFP biofilm on stainless steel coupons (CLSM) [4]: bacterial surface coverage comparable to that of control

Reference: patent publication US11357786B2, “Synthetic disugar hydrocarbons as natural analogs to control microbial behaviors” (Syracuse University, priority 2014, dated 2022)
